IC50 data for 15 compounds are collected here from patent publication US11225482B2, “Dihydropyrrolopyrimidines for the treatment and prophylaxis of hepatitis B virus infection” (Hoffmann-La Roche Inc., priority 2017, dated 2022).

This assay deals with HBsAg. As to the kind of experiment: HBsAg assay (CLIA) in HepG2.2.15 cells. The assay is classed as cell-based, HBV. Particulars: Hepatitis B virus, HepG2.2.15, read-out: IC50 (HBsAg assay). As for the experimental part:
HepG2.2.15 cells (Acs et al. Proc Natl Acad Sci USA, 84, (1987), 4641-4), a constitutively HBV-expressing cell line were cultured in DMEM+Glutamax-I medium (Invitrogen, Carlsbad, Calif., USA), supplemented with 10% fetal bovine serum (Invitrogen) and G418 (Invitrogen) at a final concentration of 200 mg/L and maintained in 5% CO2 at 37° C.
HepG2.2.15 cells were seeded in duplicate into white, 96-well plates at 1.5×10^4 cells/well. The cells were treated with a three-fold serial dilution series of the compounds in DMSO. The final DMSO concentration in all wells was 1% and DMSO was used as no drug control.
The HBsAg chemiluminescence immunoassay (CLIA) kit (Autobio Diagnostics Co., Zhengzhou, China, Catalog number: CL0310-2) was used to measure the levels of secreted HBV antigens semi-quantitatively. For the detection 50 μL/well culture supernatant was used and HBsAg was quantified using HBsAg chemiluminescence immunoassay (CLIA) kit (Autobio Diagnostics Co., Zhengzhou, China, Catalog number: CL0310-2), 50 μL of the supernatant was transferred to the CLIA assay plate and 50 μL of enzyme conjugate reagent was added into each well. The plates were sealed and gently agitated for 1 hour at room temperature. The supernatant-enzyme-mixture was discarded and wells were washed 6 times with 300 μL of PBS. The residual liquid was removed by plating the CLIA plate […] on absorbent tissue paper. 25 μL of substrates A and B were added to each well. Luminance was measured using a luminometer (Mithras LB 940 Multimode Microplate Reader) after 10 minutes incubation. Dose-response curves were generated and the IC50 value was extrapolated by using the E-WorkBook Suite (ID Business Solutions Ltd., Guildford, UK). The IC50 was defined as the compound concentration (or conditioned media log dilution) at which HBsAg secretion was reduced by 50% compared to the no drug control.

`Cc1cnc(C(=O)N2Cc3nc(-c4ncccn4)ncc3C2C)s1` (stereo not drawn) [Example 1, (5-Methyl-2-pyrimidin-2-yl-5,7-dihydropyrrolo[3,4-d]pyrimidin-6-yl)-(5-methylthiazol-2-yl)methanone]: the IC50 came out at 700 nM.
To `COc1ccc(C(=O)N2Cc3nc(-c4ncccn4)ncc3C2C)s1` (stereo not drawn) [Example 2, (5-Methoxy-2-thienyl)-(5-methyl-2-pyrimidin-2-yl-5,7-dihydropyrrolo[3,4-d]pyrimidin-6-yl)methanone] belongs 330 nM; to `CC1c2cnc(-c3ncccn3)nc2CN1C(=O)c1cc(C(F)(F)F)cs1` (stereo not drawn) [Example 3, (5-Methyl-2-pyrimidin-2-yl-5,7-dihydropyrrolo[3,4-d]pyrimidin-6-yl)-[4-(trifluoromethyl)-2-thienyl]methanone], 546 nM.
To `COc1cc(F)cc(C(=O)N2Cc3nc(-c4ncccn4)ncc3C2C)c1` (stereo not drawn) [Example 4, (3-Fluoro-5-methoxy-phenyl)-(5-methyl-2-pyrimidin-2-yl-5,7-dihydropyrrolo[3,4-d]pyrimidin-6-yl)methanone] belongs 14100 nM.
On to `CC1c2cnc(-c3ncccn3)nc2CN1C(=O)c1cccs1` (stereo not drawn) [Example 5, (5-Methyl-2-pyrimidin-2-yl-5,7-dihydropyrrolo[3,4-d]pyrimidin-6-yl)-(2-thienyl)methanone], for which the IC50 came to 1700 nM.
To `Cc1csc(C(=O)N2Cc3nc(-c4ncccn4)ncc3C2C)c1` (stereo not drawn) [Example 6, (5-Methyl-2-pyrimidin-2-yl-5,7-dihydropyrrolo[3,4-d]pyrimidin-6-yl)-(4-methyl-2-thienyl)methanone] belongs 1110 nM; to `CC1c2cnc(-c3ncccn3)nc2CN1C(=O)c1cc(Br)cs1` (stereo not drawn) [Example 7, (4-Bromo-2-thienyl)-(5-methyl-2-pyrimidin-2-yl-5,7-dihydropyrrolo[3,4-d]pyrimidin-6-yl)methanone], 920 nM; to `Cc1ccc(C(=O)N2Cc3nc(-c4ncccn4)ncc3C2C)s1` (stereo not drawn) [Example 8, (5-Methyl-2-pyrimidin-2-yl-5,7-dihydropyrrolo[3,4-d]pyrimidin-6-yl)-(5-methyl-2-thienyl)methanone], 681 nM.
For `CC1c2cnc(-c3ncccn3)nc2CN1C(=O)c1ccc(Cl)s1` (stereo not drawn) [Example 9, (5-Chloro-2-thienyl)-(5-methyl-2-pyrimidin-2-yl-5,7-dihydropyrrolo[3,4-d]pyrimidin-6-yl)methanone], the IC50 came to 380 nM.
Consider `CC1c2cnc(-c3ncccn3)nc2CN1C(=O)c1cnn(C)c1` (stereo not drawn) [Example 11, (1-Methylpyrazol-4-yl)-(5-methyl-2-pyrimidin-2-yl-5,7-dihydropyrrolo[3,4-d]pyrimidin-6-yl)methanone], for which the IC50 stood at 6170 nM.
Turning to `CC1c2cnc(-c3ncccn3)nc2CN1C(=O)c1ccn(C)n1` (stereo not drawn) [Example 13, (1-Methylpyrazol-3-yl)-(5-methyl-2-pyrimidin-2-yl-5,7-dihydropyrrolo[3,4-d]pyrimidin-6-yl)methanone], the IC50 was 3540 nM.
As for `CC1c2cnc(-c3ncccn3)nc2CN1C(=O)c1nc2ccccc2[nH]1` (stereo not drawn) [Example 14, 1H-Benzimidazol-2-yl-(5-methyl-2-pyrimidin-2-yl-5,7-dihydropyrrolo[3,4-d]pyrimidin-6-yl)methanone], the figure is 422 nM; as for `COc1ccc(C(=O)N2Cc3nc(-c4ncccn4)ncc3C2C)cc1` (stereo not drawn) [Example 15, (4-Methoxyphenyl)-(5-methyl-2-pyrimidin-2-yl-5,7-dihydropyrrolo[3,4-d]pyrimidin-6-yl)methanone], 26100 nM.
For the compound `CCn1ccc(C(=O)N2Cc3nc(-c4ncccn4)ncc3C2C)n1` (stereo not drawn) [Example 16, (1-Ethylpyrazol-3-yl)-(5-methyl-2-pyrimidin-2-yl-5,7-dihydropyrrolo[3,4-d]pyrimidin-6-yl)methanone], the IC50 stood at 4690 nM.
To `CC1c2cnc(-c3ncccn3)nc2CN1C(=O)c1ccc(Br)s1` (stereo not drawn) [Example 17, (5-Bromo-2-thienyl)-(5-methyl-2-pyrimidin-2-yl-5,7-dihydropyrrolo[3,4-d]pyrimidin-6-yl)methanone] belongs 761 nM.
